Source: article PMC4240668 (PLoS ONE, 2014)
Entries after “also recorded” stand apart in the source; their conditions may differ. Like-named read-outs stand apart in the source and are kept apart here. No end group written: not given here.

Columns and labels:
[1] = basal medium of differentiated Caco-2 monolayer (peptide added apically) in transport medium (HBSS); details: human, 37°C; for fragment found: up to 3 h
[2] = basal medium of differentiated Caco-2 monolayer with MβCD in the apical compartment; details: human, 37°C, up to 24 h
[3] = apical medium of differentiated Caco-2 monolayer in transport medium (HBSS with Ca2+, Mg2+ and glucose); details: human, 37°C, up to 24 h
[4] = apical medium (HBSS transport medium) of differentiated Caco-2 monolayer in transwell; details: human, 37°C, up to 24 h
[5] = system: differentiated Caco-2 monolayer; assay: Identification of translocated peptides in basal medium of Caco-2 monolayers by MALDI-TOF-MS; details: Caco-2 monolayer incubated apically with 32 µmol/L PF-488 labeled parent peptide, 37°C
Description: (§1) Cells were pre-incubated with transport medium (Hank's Balanced Salt Solution (HBSS) with Ca^2+, Mg^2+ and glucose) (Invitrogen) (200 µl in the apical, 900 µl in the basal compartment of the transwell system) for 30 min at 37°C. Methyl-β-cyclodextrin (MβCD; Sigma-Aldrich, Munich, Germany; 2 mmol/L) was added to the apical compartment to inhibit endocytosis. Then, PF–488 labeled GP dissolved in 100 µl transport medium were added on the apical side of the cells at a total concentration of 32 µmol/L or 145 µmol/L. Cells were incubated at 37°C for 3 or 24 h. Thereafter, media from both compartments (apical and basal) were removed to be further analyzed by fluorescence spectroscopy and MALDI–TOF–MS; cell inserts were prepared for flow cytometry and confocal laser scanning microscopy.
(§2) For mass spectrometric analyses peptides were concentrated and desalted using C18 ZipTips (Millipore). MALDI–TOF–MS analysis of the apical and basal cell culture media was performed using a Bruker Ultraflex I instrument (Bruker Daltonics, Bremen, Germany) with 2,5-dihydroxybenzoic acid (DHB)/methylenbisphosphonic acid as matrix. For calibration an external standard peptide mixture (Bruker Daltonics) was used. MS-spectra were processed by the software FlexAnalysis (version 3.0, Bruker Daltonics). The peptide sequences of P56–68 and P31–43 as well as fragments of these peptides were deduced from the detected molecular mass considering the H^+, Na^+ and K^+ adducts. Masses were assigned to peptides allegeable to cleavage of GP. Detected GP were quantified by calculating the relative area under the curve (AUC). The values of three independent experiments are given as mean values.

[6] = system: immature dendritic cells (iDC); assay: Cytokine secretion (IL-8, TNF-α) by immature dendritic cells, sandwich ELISA; format: cell-based; details: for Secretion of IL-8 and TNF-α by dendritic cells: iDC from CD14+ PBMCs, 100 µg/mL peptide in RPMI + 2% human serum, 24 h, sandwich ELISA, three experiments (Fig. S1)
Description: Supplementary file pone.0113932.s001.tiff: Figure S1 Effect of P31–43 and P56–68 on cytokine secretion (IL-8, TNF-α) by immature dendritic cells (iDC). iDC were generated from CD14+ PBMCs by a 5-day incubation with 500 U/mL IL-4 and 1000 U/mL GM-CSF in RPMI media with 10% human serum. Then, iDC were incubated with 100 µg/mL P31–43 or P56–68 in RPMI+2% human serum for 24 h. IL-8 (A) and TNF-α (B) secretion in the media were analyzed by a commercially available sandwich ELISA (R&D, Wiesbaden, Germany). Each experiment was performed three times; data are given as mean ± SD; only significant differences are shown as *p<0.05, **p<0.01. (TIFF) Click here for additional data file.
Supplementary file pone.0113932.s002.tiff: Figure S2 Effect of the basal media - after incubation of a Caco-2 monolayer with P31–43 and P56–68 - on cytokine secretion (IL-8, TNF-α) by immature dendritic cells (iDC). iDC were generated from CD14+ PBMCs by 5-day incubation with 500 U/mL IL-4 and 1000 U/mL GM-CSF in RPMI media with 10% human serum. iDC were incubated 24 h with basal media of Caco-2 monolayers after they had been exposed to PF-488 labeled P31–43 and P56–68 on the apical side of the cells. IL-8 (A) and TNF-α (B) secretion in the media was analyzed by sandwich ELISA. Each experiment was performed three times; data are given as mean ± SD. (TIFF) Click here for additional data file.

[7] = system: Caco-2 cells (brush border membrane peptidases APN, CPP, DPP IV)
Description: as §1, §2

[8] = system: Caco-2 cells (brush border membrane peptidases APN, CPP, DPP IV); assay: Digestion of gliadin peptides at the apical side of Caco-2 monolayers, MALDI-TOF-MS relative AUC; details: PF-488 labeled peptide at apical side of Caco-2 monolayer, HBSS, 37°C, mean of three independent experiments
Description: as §1, §2

[9] = basal medium (HBSS transport medium) of Caco-2 monolayer after apical peptide addition; details: human, 37°C, up to 24 h

Substance	fragment found [1]	cleaved bond [3]	fragment found [4]	Peptide detected in basal media after 24 h [5]	Secretion of IL-8 and TNF-α by dendritic cells [6]	also measured
PF-LQLQPFPQPQLPY	PF-LQ, 3 h	P-Y, major, 3 h; also recorded: L-Q, minor, 3 h; also recorded: Q-L, minor, 3 h; also recorded: P-F, minor, 3 h	QLQPFPQPQLP, minor, 3 h; also recorded: LQPFPQPQLP, minor, 3 h; also recorded: QPFPQPQLP, minor, 3 h			cleaved bond ([1]; up to 24 h): P-Y, major, 24 h; fragment found [2]: PF-LQLQPFPQPQ, 24 h; also recorded: PF-LQLQP, 24 h; also recorded: PF-LQL, 24 h; also recorded: PF-L, 24 h; also recorded: PF-LQLQPFPQPQLP, 24 h
LQLQPFPQPQLP [P56–67]				found		
LQLQPFPQPQLPY [P56–68]					no effect	C-terminal tyrosine residue cleaved (presumably by carboxypeptidase P) [7]: 72%
LGQQQPFPPQQPY [P31–43]					increased secretion	Peptide remaining in the apical compartment still intact ([8]; 3 h, MALDI-TOF-MS after C18 ZipTip, relative AUC): 76%; C-terminal tyrosine residue cleaved (presumably by carboxypeptidase P) ([8]; 24 h, MALDI-TOF-MS relative AUC): 83%; Cytokine production by iDC with basal culture media of peptide-exposed Caco-2 cells ([6]; iDC incubated 24 h with basal media of Caco-2 monolayers exposed apically to PF-488 labeled peptide, ELISA (Fig. S2)): did not significantly increase
LGQQQPFPPQQP [P31–42]				detected		Peptide detected in basal media after 3 h ([5]; 3 h): detected
PF-LGQQQPFPPQQPY	PF-LGQQQPFPPQQP, 3 h; also recorded: PF-LGQQQP, 3 h; also recorded: PF-LGQQ, 3 h; also recorded: PF-LGQ, 3 h	P-Y, major, 3 h; also recorded: L-G, 3 h; also recorded: G-Q, 3 h; also recorded: P-F, minor, 3 h	QQPFPPQQP, minor			cleaved bond [9]: P-Y, 3 h
